Experiment [1] deals with Neuronal acetylcholine receptor subunit alpha-4 (Homo sapiens, UniProt P43681).
Experiment [2] concerns the target Delta-type opioid receptor (Homo sapiens, UniProt P41143).
The next experiment has as its target T1, Adenosine receptor A3 (Homo sapiens, UniProt P0DMS8).
T1 sequence (P0DMS8 whole entry): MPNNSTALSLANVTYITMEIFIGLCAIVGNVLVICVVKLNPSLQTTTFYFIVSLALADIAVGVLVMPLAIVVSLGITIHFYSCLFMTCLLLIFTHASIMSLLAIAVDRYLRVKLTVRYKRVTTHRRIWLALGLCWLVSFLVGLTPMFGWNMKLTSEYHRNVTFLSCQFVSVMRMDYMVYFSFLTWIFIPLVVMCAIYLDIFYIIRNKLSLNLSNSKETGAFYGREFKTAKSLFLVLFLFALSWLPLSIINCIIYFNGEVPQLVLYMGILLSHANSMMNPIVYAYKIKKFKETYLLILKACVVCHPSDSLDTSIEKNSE

For another experiment, the target named is T2, Adenosine receptor A1 (Homo sapiens, UniProt P30542).
T2 sequence (P30542 whole entry): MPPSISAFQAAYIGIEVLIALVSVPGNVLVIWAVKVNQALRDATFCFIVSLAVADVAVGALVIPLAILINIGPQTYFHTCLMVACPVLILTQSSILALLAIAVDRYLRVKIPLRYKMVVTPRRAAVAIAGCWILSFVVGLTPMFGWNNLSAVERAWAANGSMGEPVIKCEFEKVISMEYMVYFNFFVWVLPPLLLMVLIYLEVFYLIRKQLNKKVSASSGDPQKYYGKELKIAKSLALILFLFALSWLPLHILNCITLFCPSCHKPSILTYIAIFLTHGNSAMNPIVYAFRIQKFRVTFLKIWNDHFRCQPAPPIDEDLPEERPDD

In a further experiment the target is Motilin receptor (Homo sapiens, UniProt O43193).
Motilin receptor, sequence (O43193 whole entry): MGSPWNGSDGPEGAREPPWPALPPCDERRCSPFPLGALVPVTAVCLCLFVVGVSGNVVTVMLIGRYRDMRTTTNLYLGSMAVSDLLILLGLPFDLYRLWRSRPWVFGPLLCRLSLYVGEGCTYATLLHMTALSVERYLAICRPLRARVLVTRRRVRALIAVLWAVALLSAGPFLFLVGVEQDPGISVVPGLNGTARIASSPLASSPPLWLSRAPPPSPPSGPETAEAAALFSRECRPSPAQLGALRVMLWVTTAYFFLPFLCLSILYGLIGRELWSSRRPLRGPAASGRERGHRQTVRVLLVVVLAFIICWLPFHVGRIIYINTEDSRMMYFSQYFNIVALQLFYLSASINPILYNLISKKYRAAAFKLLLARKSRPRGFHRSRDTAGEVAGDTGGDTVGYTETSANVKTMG
Experiment [3] deals with T3, Amine oxidase [flavin-containing] A (Homo sapiens, UniProt P21397).
T3 sequence (P21397 whole entry): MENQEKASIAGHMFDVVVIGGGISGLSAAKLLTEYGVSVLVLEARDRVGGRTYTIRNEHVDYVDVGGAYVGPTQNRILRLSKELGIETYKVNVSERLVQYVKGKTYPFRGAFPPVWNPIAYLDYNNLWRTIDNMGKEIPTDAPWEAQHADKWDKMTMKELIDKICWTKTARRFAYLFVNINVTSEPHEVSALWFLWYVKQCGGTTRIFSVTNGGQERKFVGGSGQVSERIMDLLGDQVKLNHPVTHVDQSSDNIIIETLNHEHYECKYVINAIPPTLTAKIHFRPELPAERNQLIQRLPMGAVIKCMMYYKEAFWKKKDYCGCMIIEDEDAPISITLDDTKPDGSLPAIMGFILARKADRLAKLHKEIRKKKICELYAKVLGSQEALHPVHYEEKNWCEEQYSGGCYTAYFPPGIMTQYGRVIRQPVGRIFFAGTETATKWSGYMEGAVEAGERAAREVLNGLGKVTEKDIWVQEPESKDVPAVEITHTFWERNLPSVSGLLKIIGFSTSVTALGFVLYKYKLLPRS
The experiment is classed as functional.

Experiment [4] deals with 3',5'-cyclic-AMP phosphodiesterase 4D (Homo sapiens, UniProt Q08499). The experiment is classed as functional.
3',5'-cyclic-AMP phosphodiesterase 4D, sequence (Q08499 whole entry): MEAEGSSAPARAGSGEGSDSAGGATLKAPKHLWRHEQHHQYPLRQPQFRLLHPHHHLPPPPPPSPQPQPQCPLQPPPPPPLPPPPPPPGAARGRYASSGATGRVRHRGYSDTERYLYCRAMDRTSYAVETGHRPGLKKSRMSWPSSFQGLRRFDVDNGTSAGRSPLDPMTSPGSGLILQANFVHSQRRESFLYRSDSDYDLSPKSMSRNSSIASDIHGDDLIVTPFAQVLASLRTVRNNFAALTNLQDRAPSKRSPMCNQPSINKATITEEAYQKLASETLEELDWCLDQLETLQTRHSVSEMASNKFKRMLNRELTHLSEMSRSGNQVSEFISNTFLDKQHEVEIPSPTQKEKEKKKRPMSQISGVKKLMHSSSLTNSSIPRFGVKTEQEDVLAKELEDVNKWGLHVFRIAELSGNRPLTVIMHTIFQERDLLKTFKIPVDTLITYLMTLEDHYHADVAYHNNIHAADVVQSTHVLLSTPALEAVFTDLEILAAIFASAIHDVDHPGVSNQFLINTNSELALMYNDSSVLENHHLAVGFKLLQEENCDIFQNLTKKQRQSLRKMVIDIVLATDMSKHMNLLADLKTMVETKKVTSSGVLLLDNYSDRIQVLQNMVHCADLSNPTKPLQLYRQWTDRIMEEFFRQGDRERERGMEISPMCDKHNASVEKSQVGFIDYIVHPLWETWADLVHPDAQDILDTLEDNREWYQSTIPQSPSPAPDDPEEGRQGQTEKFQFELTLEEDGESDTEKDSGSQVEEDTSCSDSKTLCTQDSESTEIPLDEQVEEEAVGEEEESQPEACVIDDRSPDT
Experiment [5] addresses T4, Muscarinic acetylcholine receptor M2 (Homo sapiens, UniProt P08172).
T4 sequence (P08172 whole entry): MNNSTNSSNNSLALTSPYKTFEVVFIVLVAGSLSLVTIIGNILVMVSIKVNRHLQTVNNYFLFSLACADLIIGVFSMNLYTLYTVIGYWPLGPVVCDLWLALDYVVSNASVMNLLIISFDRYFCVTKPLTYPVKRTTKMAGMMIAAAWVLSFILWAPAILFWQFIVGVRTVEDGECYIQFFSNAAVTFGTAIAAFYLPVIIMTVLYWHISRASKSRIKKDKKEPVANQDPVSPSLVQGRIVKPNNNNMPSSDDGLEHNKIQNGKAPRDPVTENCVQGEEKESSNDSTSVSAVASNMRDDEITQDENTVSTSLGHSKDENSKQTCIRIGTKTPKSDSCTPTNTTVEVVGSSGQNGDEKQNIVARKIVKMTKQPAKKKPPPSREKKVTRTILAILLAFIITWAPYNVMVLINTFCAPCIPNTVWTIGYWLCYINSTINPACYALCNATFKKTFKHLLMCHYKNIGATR
The format is functional, cell-based.

Experiment [6] addresses T5, Alpha-2A adrenergic receptor (Homo sapiens, UniProt P08913).
T5 sequence (P08913 whole entry): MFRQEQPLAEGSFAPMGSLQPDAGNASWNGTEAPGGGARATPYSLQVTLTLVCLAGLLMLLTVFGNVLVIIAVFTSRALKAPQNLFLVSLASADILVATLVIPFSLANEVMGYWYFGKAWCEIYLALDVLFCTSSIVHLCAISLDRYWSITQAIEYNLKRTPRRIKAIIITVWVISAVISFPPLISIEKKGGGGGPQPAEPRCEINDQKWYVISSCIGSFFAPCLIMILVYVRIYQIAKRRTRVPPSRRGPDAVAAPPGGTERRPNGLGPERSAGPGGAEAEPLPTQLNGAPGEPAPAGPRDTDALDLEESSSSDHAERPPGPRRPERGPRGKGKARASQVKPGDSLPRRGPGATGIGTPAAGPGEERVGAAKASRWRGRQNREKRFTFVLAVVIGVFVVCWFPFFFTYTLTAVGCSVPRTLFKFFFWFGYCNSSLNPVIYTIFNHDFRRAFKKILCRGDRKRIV
The experiment is classed as functional, cell-based.

The target of experiment [7] is Voltage-gated inwardly rectifying potassium channel KCNH2 (Homo sapiens, UniProt Q12809). The format is functional. To be noted: read-out: AC50.
Voltage-gated inwardly rectifying potassium channel KCNH2, sequence (Q12809 whole entry): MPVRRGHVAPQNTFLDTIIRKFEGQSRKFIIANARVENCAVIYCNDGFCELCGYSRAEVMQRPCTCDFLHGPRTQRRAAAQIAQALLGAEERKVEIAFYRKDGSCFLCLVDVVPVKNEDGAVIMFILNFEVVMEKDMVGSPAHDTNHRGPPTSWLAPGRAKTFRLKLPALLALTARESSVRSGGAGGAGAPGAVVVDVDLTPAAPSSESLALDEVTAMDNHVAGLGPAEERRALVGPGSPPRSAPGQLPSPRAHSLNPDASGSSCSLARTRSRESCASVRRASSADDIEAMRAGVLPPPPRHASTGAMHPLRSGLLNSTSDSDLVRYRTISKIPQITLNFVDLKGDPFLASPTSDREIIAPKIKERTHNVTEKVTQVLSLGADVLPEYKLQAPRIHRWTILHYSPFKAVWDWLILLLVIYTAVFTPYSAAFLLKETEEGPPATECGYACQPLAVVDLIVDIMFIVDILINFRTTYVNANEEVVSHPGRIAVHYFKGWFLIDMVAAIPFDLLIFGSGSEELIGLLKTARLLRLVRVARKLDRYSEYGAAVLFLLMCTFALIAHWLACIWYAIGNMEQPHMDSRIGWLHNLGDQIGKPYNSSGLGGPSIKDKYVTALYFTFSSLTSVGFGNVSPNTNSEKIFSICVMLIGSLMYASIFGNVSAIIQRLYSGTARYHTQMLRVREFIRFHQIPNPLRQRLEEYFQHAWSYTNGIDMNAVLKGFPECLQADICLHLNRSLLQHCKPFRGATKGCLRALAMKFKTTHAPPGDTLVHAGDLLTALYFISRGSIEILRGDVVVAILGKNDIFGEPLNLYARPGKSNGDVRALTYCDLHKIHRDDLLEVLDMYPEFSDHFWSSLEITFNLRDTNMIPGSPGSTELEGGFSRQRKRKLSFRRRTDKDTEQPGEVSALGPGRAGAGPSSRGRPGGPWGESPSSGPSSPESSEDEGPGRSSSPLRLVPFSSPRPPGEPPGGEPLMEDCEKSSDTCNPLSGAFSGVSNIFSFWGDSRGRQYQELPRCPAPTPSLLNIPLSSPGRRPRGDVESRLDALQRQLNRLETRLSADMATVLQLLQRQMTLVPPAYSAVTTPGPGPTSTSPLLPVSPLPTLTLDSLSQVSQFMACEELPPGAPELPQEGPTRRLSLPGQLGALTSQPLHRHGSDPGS
The target of another experiment is D(1A) dopamine receptor (Homo sapiens, UniProt P21728). The experiment is classed as functional, cell-based.
D(1A) dopamine receptor, sequence (P21728 whole entry): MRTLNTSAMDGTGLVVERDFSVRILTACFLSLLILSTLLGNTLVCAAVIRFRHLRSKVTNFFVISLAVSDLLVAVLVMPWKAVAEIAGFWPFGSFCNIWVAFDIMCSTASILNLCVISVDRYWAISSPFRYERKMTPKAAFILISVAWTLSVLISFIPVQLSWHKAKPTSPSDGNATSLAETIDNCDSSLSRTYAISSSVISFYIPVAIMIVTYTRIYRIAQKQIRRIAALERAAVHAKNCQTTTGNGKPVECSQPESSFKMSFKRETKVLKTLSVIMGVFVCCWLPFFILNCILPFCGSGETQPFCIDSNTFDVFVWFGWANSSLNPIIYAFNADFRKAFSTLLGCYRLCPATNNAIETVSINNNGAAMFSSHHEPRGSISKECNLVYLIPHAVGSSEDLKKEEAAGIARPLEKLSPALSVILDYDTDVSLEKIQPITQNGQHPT

The source of these data is ChEMBL document CHEMBL5291721, “A preclinical secondary pharmacology resource illuminates target-adverse drug reaction associations of marketed drugs” (Nat Commun, 2023).
Note: assay procedure not described here.

Delta-type opioid receptor, sequence (P41143 whole entry): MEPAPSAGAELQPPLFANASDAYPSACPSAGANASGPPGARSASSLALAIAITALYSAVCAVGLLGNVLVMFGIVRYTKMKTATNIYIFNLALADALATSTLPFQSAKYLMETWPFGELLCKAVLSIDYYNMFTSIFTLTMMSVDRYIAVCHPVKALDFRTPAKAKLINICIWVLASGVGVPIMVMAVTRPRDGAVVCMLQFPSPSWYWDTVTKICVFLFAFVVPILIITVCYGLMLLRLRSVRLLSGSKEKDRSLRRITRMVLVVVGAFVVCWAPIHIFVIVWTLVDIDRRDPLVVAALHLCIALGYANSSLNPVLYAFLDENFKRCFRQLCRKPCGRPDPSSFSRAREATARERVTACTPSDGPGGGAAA
Neuronal acetylcholine receptor subunit alpha-4, sequence (P43681 whole entry): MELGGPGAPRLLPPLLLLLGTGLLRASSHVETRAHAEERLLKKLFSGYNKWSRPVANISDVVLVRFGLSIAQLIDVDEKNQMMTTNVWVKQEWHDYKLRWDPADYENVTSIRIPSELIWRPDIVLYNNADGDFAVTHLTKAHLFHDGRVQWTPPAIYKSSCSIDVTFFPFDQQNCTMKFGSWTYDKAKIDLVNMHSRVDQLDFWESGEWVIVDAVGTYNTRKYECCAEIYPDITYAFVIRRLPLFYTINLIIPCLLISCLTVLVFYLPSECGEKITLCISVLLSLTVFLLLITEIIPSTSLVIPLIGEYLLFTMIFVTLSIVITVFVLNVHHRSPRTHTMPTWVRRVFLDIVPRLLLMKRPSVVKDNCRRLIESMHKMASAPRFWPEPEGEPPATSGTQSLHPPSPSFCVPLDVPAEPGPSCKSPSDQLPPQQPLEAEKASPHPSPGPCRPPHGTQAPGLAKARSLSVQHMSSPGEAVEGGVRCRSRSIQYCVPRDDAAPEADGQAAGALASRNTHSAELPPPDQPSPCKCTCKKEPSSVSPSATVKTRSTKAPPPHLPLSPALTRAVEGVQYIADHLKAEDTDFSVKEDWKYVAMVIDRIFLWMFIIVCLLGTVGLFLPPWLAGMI

As to `CCCCN1C[C@H](O)[C@@H](O)[C@H](O)[C@H]1CO`, the AC50 (in experiment [1]; in experiment [2]; on Adenosine receptor A3; on Adenosine receptor A1; at Motilin receptor; in [3]) was more than 30 µM each time. Also, the AC50 (in [4]; in experiment [5]; in experiment [6]; in [7]; on D(1A) dopamine receptor) was more than 30 µM each time.

In the case of `CN(C)CCC=C1c2ccccc2C(C)(C)c2ccccc21`, the concentration at half-maximal activity (AC50) (commonly the midpoint of the concentration-response curve, whichever way the signal moves) was more than 1 µM in experiment [1]; more than 30 µM in [2]; more than 30 µM at Adenosine receptor A3; more than 30 µM on Adenosine receptor A1; 14 µM on Motilin receptor; more than 30 µM in experiment [3]. Besides, the AC50 in experiment [4] is more than 30 µM; in experiment [5] it was 0.25 µM; in [6], more than 30 µM; in experiment [7] it was 4.13 µM; on D(1A) dopamine receptor, more than 30 µM.

Take `CCOC(=O)[C@H](CCc1ccccc1)N[C@@H](C)C(=O)N1[C@H](C(=O)O)C[C@@H]2CCC[C@@H]21`: the AC50 in experiment [1] was more than 10 µM; in [2], more than 30 µM; on Adenosine receptor A3 it was more than 30 µM; on Adenosine receptor A1 it was more than 30 µM; on Motilin receptor it was more than 10 µM; in experiment [3] it was more than 10 µM. Also, the AC50 in experiment [4] is more than 30 µM; in experiment [5], more than 10 µM; in experiment [6] it was more than 10 µM; in experiment [7], more than 30 µM; on D(1A) dopamine receptor, more than 10 µM.

For `COc1cc2nc(N(C)CCCNC(=O)C3CCCO3)nc(N)c2cc1OC` (stereo unspecified) [ALFUZOSIN], the concentration at half-maximal activity (AC50) (in [1]; in experiment [2]; at Adenosine receptor A3; at Adenosine receptor A1; at Motilin receptor; in [3]) was more than 30 µM throughout. Also, the concentration at half-maximal activity (AC50) (in [4]; in experiment [5]; in experiment [6]; on D(1A) dopamine receptor) was more than 30 µM in each case.

Turning to `Cc1ccc(-c2cc(C(F)(F)F)nn2-c2ccc(S(N)(=O)=O)cc2)cc1` [CELECOXIB], the half-maximal activity concentration (AC50) in experiment [1] was more than 10 µM; in [2], more than 30 µM; at Adenosine receptor A3, 9.14 µM; on Adenosine receptor A1, more than 10 µM; at Motilin receptor, more than 10 µM; in experiment [3] it was more than 10 µM. In addition, the AC50 in experiment [4] was 20 µM; in [5] it was more than 10 µM; in experiment [6], more than 10 µM; on D(1A) dopamine receptor, more than 10 µM.

Regarding `CC1=C(C(=O)O)N2C(=O)[C@@H](NC(=O)[C@H](N)c3ccccc3)[C@H]2SC1` [CEPHALEXIN ANHYDROUS], the AC50 was more than 10 µM in experiment [1]; more than 30 µM in experiment [2]; more than 30 µM at Adenosine receptor A3; more than 30 µM on Adenosine receptor A1; more than 10 µM on Motilin receptor; more than 10 µM in experiment [3]. Besides, the AC50 in experiment [4] and in [6] was more than 30 µM in each case.

As to `CN(C)CCC(c1ccc(Cl)cc1)c1ccccn1` (stereo unspecified) [CHLORPHENIRAMINE], the AC50 in experiment [1] was more than 10 µM; in experiment [2], more than 10 µM; at Adenosine receptor A3, more than 30 µM; at Adenosine receptor A1, more than 30 µM; on Motilin receptor it was more than 10 µM; in experiment [3], more than 10 µM. The AC50 (in [4]; in experiment [5]; in experiment [6]; on D(1A) dopamine receptor) was more than 10 µM throughout.

On to `C[N+]1(C)CCC(OC(=O)C(O)(c2ccccc2)C2CCCC2)C1` (stereo unspecified) [GLYCOPYRRONIUM BROMIDE], for which the results for the AC50 (at Motilin receptor; in [4]) were more than 10 µM and more than 30 µM, respectively.

For `CCCN1C[C@H](CSC)C[C@@H]2c3cccc4[nH]cc(c34)C[C@H]21` [PERGOLIDE], the concentration at half-maximal activity (AC50) (in experiment [1]; in [2]; on Adenosine receptor A3; at Adenosine receptor A1; on Motilin receptor; in experiment [3]) was more than 30 µM throughout. In addition, the results for the AC50 in experiment [4], in experiment [5] and in [7] were more than 30 µM, more than 30 µM and 0.22 µM, respectively.

In the case of `C1CCC(C(CC2CCCCN2)C2CCCCC2)CC1` (stereo unspecified) [PERHEXILINE], the AC50 in [1] was more than 3 µM; in experiment [2], 23.5 µM; at Adenosine receptor A3, 14.1 µM; on Adenosine receptor A1, more than 30 µM; on Motilin receptor it was 29 µM; in [3] it was more than 30 µM. Also, the concentration at half-maximal activity (AC50) was more than 30 µM in experiment [4], 11 µM in experiment [6] and more than 30 µM at D(1A) dopamine receptor.

As to `COc1cc(NC(C)CCCN)c2ncccc2c1` (stereo unspecified) [PRIMAQUINE], the AC50 at Adenosine receptor A1 is more than 30 µM; at Motilin receptor, more than 30 µM; in experiment [4], 12 µM; in [7], 20 µM.

As to `COc1ccccc1OCC(O)CN1CCN(CC(=O)Nc2c(C)cccc2C)CC1` (stereo unspecified) [RANOLAZINE], the AC50 (in [1]; in experiment [2]; at Adenosine receptor A3; on Adenosine receptor A1; at Motilin receptor; in experiment [3]) was more than 30 µM in each case. In addition, the half-maximal activity concentration (AC50) (in experiment [4]; in experiment [5]; in experiment [6]; on D(1A) dopamine receptor) was more than 30 µM in each case.

For the compound `Cc1c(C(=O)NN2CCCCC2)nn(-c2ccc(Cl)cc2Cl)c1-c1ccc(Cl)cc1` [RIMONABANT], the AC50 in experiment [1] was more than 10 µM; in [2] it was more than 30 µM; on Adenosine receptor A3 it was 3.76 µM; at Adenosine receptor A1 it was more than 30 µM; on Motilin receptor, 21 µM; in experiment [3] it was more than 30 µM. The AC50 (in [4]; in experiment [6]; in experiment [7]; at D(1A) dopamine receptor) was more than 30 µM throughout.

Regarding `Clc1ccc2nsnc2c1NC1=NCCN1` [TIZANIDINE], the AC50 is more than 10 µM in experiment [1]; more than 30 µM in [2]; more than 30 µM at Adenosine receptor A3; more than 30 µM on Adenosine receptor A1; more than 10 µM on Motilin receptor; more than 10 µM in [3]. In addition, the AC50 was more than 30 µM in experiment [4], more than 30 µM in experiment [5], more than 30 µM in experiment [7] and more than 10 µM on D(1A) dopamine receptor.

For `CCCCCCOc1nsnc1C1=CCCN(C)C1` [XANOMELINE], the AC50 in experiment [7] was determined as 1.3 µM.
